ChEMBL document CHEMBL5727219, “Kinase inhibitors and method of treating cancer” (2019)

Experiment: Inhibition Assay: PLK3 inhibition was determined using the Z-Lyte assay kit from Invitrogen (cat #PV3802). The assay was performed using the recommended manufacturer's instructions with 100 μM ATP and 21 nM PLK3 (Invitrogen cat #PV3812). The % inhibition values were determined according to the manufacturer's directions and IC50 values were obtained using a non-linear 4 point logistic curve fit (XLfit4, IDBS).

Row | SMILES | IC50
1 | COCCN1C(=O)[C@@]2(C[C@H]2c2ccc3c(/C=C/c4ccc(CN(C)C)cc4)n[nH]c3c2)c2ccccc21 | in the range around 2000 nM
2 | COc1ccc2c(c1)[C@]1(C[C@H]1c1ccc3c(-c4cccc(N5CCNCC5)c4)n[nH]c3c1)C(=O)N2 (relative stereo) | in the range around 2000 nM
3 | COc1ccc2c(c1)[C@]1(C[C@H]1c1ccc3c(-c4cccc(CN5CCCCC5)c4)n[nH]c3c1)C(=O)N2 (relative stereo) | in the range around 2000 nM
4 | COc1ccc2c(c1)[C@]1(C[C@H]1c1ccc3c(-c4ccc(CO)cc4)n[nH]c3c1)C(=O)N2 (relative stereo) | in the range around 2000 nM

Second part, the compound after the results:

Row | IC50 | SMILES
5 | in the range around 2000 nM | COc1ccc2c(c1)[C@]1(C[C@H]1c1ccc3c(-c4cccc(CN5CCOCC5)c4)n[nH]c3c1)C(=O)N2 (relative stereo)
6 | in the range around 2000 nM | CCc1ccc2c(c1)[C@]1(C[C@H]1c1ccc3c(-c4cccc(CN5CCOCC5)c4)n[nH]c3c1)C(=O)N2
